Assay results: patent US10093660B2, “Sulfoximine substituted quinazolines for pharmaceutical compositions” (EVOTEC INTERNATIONAL GMBH, priority 2013, dated 2018)

Tests used:
[1] = target: MNK2a (Homo sapiens (Human), UniProt Q9HBH9); experiment: MNK2a in vitro kinase assay (Assay 2), ADP-Glo; assay type: biochemical; conditions: assay 2; read-out: MNK2 IC50
Text: B. MNK2a In Vitro Kinase Assay (Assay 2)

[2] = target: MNK1a (Homo sapiens (Human), UniProt Q9BUB5); experiment: MNK1 in vitro kinase assay (Assay 3), Z'-LYTE; assay type: biochemical; conditions: for inhibition at 1 µM: read-out: MNK1 % INH
Sequence of MNK1a (Q9BUB5 other isoform, or with tags, fused parts or gaps): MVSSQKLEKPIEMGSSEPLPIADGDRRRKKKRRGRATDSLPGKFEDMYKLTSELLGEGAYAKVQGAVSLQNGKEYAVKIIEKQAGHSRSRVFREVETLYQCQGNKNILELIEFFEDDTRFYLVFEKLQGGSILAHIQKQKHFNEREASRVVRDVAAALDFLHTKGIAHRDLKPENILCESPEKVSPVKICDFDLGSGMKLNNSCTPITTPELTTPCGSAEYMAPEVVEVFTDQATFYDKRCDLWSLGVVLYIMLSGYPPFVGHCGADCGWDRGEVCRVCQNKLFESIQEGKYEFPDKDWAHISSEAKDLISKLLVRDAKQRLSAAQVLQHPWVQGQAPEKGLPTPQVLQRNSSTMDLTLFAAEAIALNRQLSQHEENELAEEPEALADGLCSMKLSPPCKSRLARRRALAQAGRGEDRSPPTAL
Text: C. MNK1 In Vitro Kinase Assay (Assay 3)
MNK1 Data can be obtained from the MNK1 Z′-LYTE® assay. The MNK1 Z′-LYTE® screening protocol and assay conditions are also described on www.invitrogen.com.
The assay is described as follows:
The Z′-LYTE® biochemical assay employs a fluorescence-based, coupled-enzyme format and is based on the differential sensitivity of phosphorylated and non-phosphorylated peptides to proteolytic cleavage. The peptide substrate is labeled with two fluorophores—one at each end—that make up a FRET pair.
In the primary reaction, the kinase transfers the gamma-phosphate of ATP to a single tyrosine, serine or threonine residue in a synthetic FRET-peptide. In the secondary reaction, a site-specific protease recognizes and cleaves non-phosphorylated FRET-peptides. Phosphorylation of FRET-peptides suppresses cleavage by the Development Reagent. Cleavage disrupts FRET between the donor (i.e., coumarin) and acceptor (i.e., fluorescein) fluorophores on the FRET-peptide, whereas uncleaved, phosphorylated FRET-peptides maintain FRET. A ratiometric method, which calculates the ratio (the Emission Ratio) of donor emission to acceptor emission after excitation of the donor fluorophore at 400 nm, is used to quantitate reaction progress, as shown in the equation below.
The 2×MKNK1 (MNK1) mixture is prepared in 50 mM HEPES pH 7.5, 0.01% BRIJ-35, 10 mM MgCl2, 4 mM MnCl2, 1 mM EGTA, 2 mM DTT.
The Test Compounds are screened in 1% DMSO (final) in the well.
All Peptide/Kinase Mixtures are diluted to a 2× working concentration in the MNK1 Kinase Buffer.
All ATP Solutions are diluted to a 4× working concentration in Kinase Buffer (50 mM HEPES pH 7.5, 0.01% BRIJ-35, 10 mM MgCl2, 1 mM EGTA).
Development Reagent Solution:
The Development Reagent is diluted in Development Buffer
1. 2.5 μL—4× Test Compound
2. 5 μL—2× Peptide/Kinase Mixture
5. 60-minute Kinase Reaction incubation at room temperature
6. 5 μL—Development Reagent Solution
8. 60-minute Development Reaction incubation at room temperature
9. Read on fluorescence plate reader and analyze the data
Control C0%=Average Coumarin emission signal of the 0% Phos. Control F100%=Average Fluorescein emission signal of the 100% Phos. Control F0%=Average Fluorescein emission signal of the 0% Phos. Control Graphing Software
SelectScreen® Kinase Profiling Service uses XLfit from IDBS. […] The activity of MNK proteins can be assayed also by other in vitro kinase assay formats. […] In general, MNK kinase assays can be performed such that a MNK substrate such as a protein or a peptide, which may or may not include modifications as further described below, or others are phosphorylated by MNK proteins having enzymatic activity in vitro. The activity of a candidate agent can then be determined via its ability to decrease the enzymatic activity of the MNK protein. The kinase activity may be detected by change of the chemical, physical or immunological properties of the substrate due to phosphorylation.

Sequence of MNK2a (Q9HBH9 whole entry): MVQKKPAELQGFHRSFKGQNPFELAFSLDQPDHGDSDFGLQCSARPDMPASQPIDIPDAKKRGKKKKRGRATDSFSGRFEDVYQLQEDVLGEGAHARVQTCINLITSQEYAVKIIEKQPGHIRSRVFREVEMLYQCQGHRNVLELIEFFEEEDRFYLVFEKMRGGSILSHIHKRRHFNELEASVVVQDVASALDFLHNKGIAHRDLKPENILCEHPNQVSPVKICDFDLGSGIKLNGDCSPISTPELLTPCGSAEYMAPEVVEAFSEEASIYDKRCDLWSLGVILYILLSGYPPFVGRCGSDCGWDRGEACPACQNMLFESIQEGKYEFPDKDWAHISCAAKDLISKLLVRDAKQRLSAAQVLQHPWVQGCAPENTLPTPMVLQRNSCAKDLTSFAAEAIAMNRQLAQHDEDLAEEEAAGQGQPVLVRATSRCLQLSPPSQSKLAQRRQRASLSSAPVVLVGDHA

SMILES | IC50 [1] [nM] | inhibition at 1 µM ([2]; compound concentration of 1 μM) [%] | IC50 [2] [nM] | MNK1 % INH ([2]; compound concentration of 1 μM) [%]
COc1cc(N=S(C)(=O)c2cccnc2)cc2ncnc(Nc3ccc(F)cc3O[C@H]3COC[C@H]3O)c12 (mixture of isomers) [Example 9.12] | 27 | 86 |  | 
COc1cc(N=S(C)(=O)C2CCOCC2)cc2ncnc(Nc3ccc(F)cc3O[C@H]3COC[C@H]3O)c12 (mixture of isomers) [Example 9.15] | 32 | 82 |  | 
COc1cc(N=S(C)(=O)C2CC2)cc2ncnc(Nc3ccc(F)cc3O[C@H]3COC[C@H]3O)c12 (mixture of isomers) [Example 9.17] | 33 | 92 |  | 
COc1cc(N=S(C)(=O)C(C)(C)C)cc2ncnc(Nc3ccc(F)cc3O[C@H]3COC[C@H]3O)c12 (mixture of isomers) [Example 9.19] | 42 |  | 329 | 
COc1cc(N=S(C)(=O)C(C)C)cc2ncnc(Nc3ccc(F)cc3O[C@H]3COC[C@H]3O)c12 (mixture of isomers) [Example 9.20] | 23 | 87 |  | 
COc1cc(N=S(C)(=O)c2ccccc2)cc2ncnc(Nc3ccc(F)cc3O[C@H]3COC[C@H]3O)c12 (mixture of isomers) [Example 9.21] | 23 | 84 |  | 
COc1cc(N=S2(=O)CCC(C)C2)cc2ncnc(Nc3ccc(F)cc3O[C@H]3COC[C@H]3O)c12 (mixture of isomers) [Example 9.23] | 8 | 93 |  | 
Cc1cc(N=S(C)(C)=O)cc2ncnc(Nc3cccnc3O[C@@H]3COC[C@@H]3O)c12 (racemic) [Example 2.4] | 17 | 93 |  | 
CO[C@H]1COC[C@@H]1Oc1ncccc1Nc1ncnc2cc(N=S3(=O)CCCC3)cc(C)c12 (racemic) [Example 2.39] | 7 | 86 |  | 
CS(C)(=O)=Nc1cc(F)c2c(Nc3ccc(F)cc3O[C@H]3COC[C@H]3O)ncnc2c1 (racemic) [Example 2.52] | 15 | 97 |  | 
Cc1cc(N=S(C)(=O)C2CCOCC2)cc2ncnc(Nc3ccc(F)cc3O[C@@H]3COC[C@@H]3O)c12 (mixture of isomers) [Example 2.65] | 10 | 100 |  | 
Cc1cc(N=S(C)(=O)C(C)(C)C)cc2ncnc(Nc3ccc(F)cc3O[C@@H]3COC[C@@H]3O)c12 (mixture of isomers) [Example 2.68] | 11 | 94 |  | 
Cc1cc(N=S(C)(=O)c2cccnc2)cc2ncnc(Nc3ccc(F)cc3O[C@@H]3COC[C@@H]3O)c12 (mixture of isomers) [Example 2.70] | 10 | 92 |  | 
Cc1cc(N=S2(=O)CCC(O)CC2)cc2ncnc(Nc3ccc(F)cc3O[C@@H]3COC[C@@H]3O)c12 (mixture of isomers) [Example 2.76] | 7 | 96 |  | 
CC(=O)O[C@@H]1COC[C@@H]1Oc1cc(F)ccc1Nc1ncnc2cc(N=S(C)(C)=O)cc(C)c12 (racemic) [Example 6.9] | 7 | 90 |  | 
COCCO[C@@H]1COC[C@@H]1Oc1cc(F)ccc1Nc1ncnc2cc(N=S(C)(C)=O)cc(C)c12 (racemic) [Example 7.1] | 45 | 62 |  | 
Cc1cc(N=S(C)(C)=O)cc2ncnc(Nc3ccc(F)cc3O[C@H]3COC[C@H]3OCC3CC3)c12 (racemic) [Example 7.2] | 6 | 94 |  | 
Cc1cc(N=S(C)(C)=O)cc2ncnc(Nc3ccc(F)cc3O[C@H]3COC[C@H]3OC3COC3)c12 (racemic) [Example 7.3] | 7 | 93 |  | 
COc1cc(N=S2(=O)CCC2)cc2ncnc(Nc3cccnc3O[C@H]3COC[C@H]3O)c12 (racemic) [Example 8.4] | 11 |  | 104 | 
COc1cc(N=S2(=O)CCCC2)cc2ncnc(Nc3cccnc3O[C@H]3COC[C@H]3O)c12 (racemic) [Example 8.5] | 21 | 97 |  | 
COc1cc(N=S(C)(C)=O)cc2ncnc(Nc3ccc(F)cc3O[C@H]3COC[C@H]3O)c12 (racemic) [Example 9.3] | 26 | 90 |  | 
COc1cc(N=S2(=O)CCCC2)cc2ncnc(Nc3ccc(F)cc3O[C@H]3COC[C@H]3O)c12 (racemic) [Example 9.13] | 6 | 99 |  | 
COc1cc(N=S2(=O)CCC2)cc2ncnc(Nc3ccc(F)cc3O[C@H]3COC[C@H]3O)c12 (racemic) [Example 9.16] | 7 | 98 |  | 
Cc1cc(N=S2(=O)CCC2)cc2ncnc(Nc3ccc(F)cc3O[C@H]3COC[C@@H]3O)c12 [Example 2.36] |  |  | 51 | 
Cc1cc(N=S(C)(C)=O)cc2ncnc(Nc3ccc(F)cc3O[C@H]3COC[C@@H]3O)c12 [Example 2.45] |  |  | 92 | 92
Cc1cc(N=S2(=O)CCC2)cc2ncnc(Nc3ccc(F)cc3O[C@@H]3COC[C@H]3O)c12 [Example 2.47] |  | 103 |  | 
Cc1cc(N=S2(=O)CCC2)cc2ncnc(Nc3cccnc3O[C@@H]3COC[C@H]3O)c12 [Example 2.49] |  | 94 |  | 
O=S1(=Nc2cc(F)c3c(Nc4ccc(F)cc4O[C@H]4COC[C@@H]4O)ncnc3c2)CCCC1 [Example 2.66] |  | 100 |  | 
Cc1cc(N=S(C)(=O)C2CC2)cc2ncnc(Nc3ccc(F)cc3O[C@H]3COC[C@@H]3O)c12 (stereo partly shown) [Example 2.77] |  | 94 |  | 
Cc1cc(N=S2(=O)CCCC2)cc2ncnc(Nc3ccc(F)cc3O[C@H]3CNC[C@@H]3O)c12 [Example 3.6] |  | 98 |  | 

More lines, in order of falling IC50 [1], values ahead:

IC50 [1] [nM] | inhibition at 1 µM ([2]; compound concentration of 1 μM) [%] | IC50 [2] [nM] | MNK1 % INH ([2]; compound concentration of 1 μM) [%] | SMILES
6 | 82 |  |  | CO[C@@H]1COC[C@@H]1Oc1cc(F)ccc1Nc1ncnc2cc(N=S(C)(C)=O)cc(F)c12 (racemic) [Example 2.57]
6 | 94 |  |  | Cc1cc(N=S(C)(=O)C(C)C)cc2ncnc(Nc3ccc(F)cc3O[C@@H]3COC[C@@H]3O)c12 (mixture of isomers) [Example 2.71]
4 | 97 |  |  | Cc1cc(N=S2(=O)CCC(C)C2)cc2ncnc(Nc3ccc(F)cc3O[C@@H]3COC[C@@H]3O)c12 (mixture of isomers) [Example 2.83]
3 | 95 |  |  | CS(C)(=O)=Nc1cc(Cl)c2c(Nc3ccc(F)cc3O[C@H]3COC[C@H]3O)ncnc2c1 (racemic) [Example 1.3]
2 | 97 |  |  | CO[C@@H]1COC[C@@H]1Oc1cc(F)ccc1Nc1ncnc2cc(N=S(C)(C)=O)cc(Cl)c12 (racemic) [Example 1.4]
2 | 88 |  |  | O=S1(=Nc2cc(Cl)c3c(Nc4ccc(F)cc4O[C@H]4COC[C@H]4O)ncnc3c2)CCCC1 (racemic) [Example 1.5]
2 | 100 |  |  | Cc1cc(N=S2(=O)CCCC2)cc2ncnc(Nc3ccc(F)cc3O[C@H]3COC[C@H]3O)c12 (racemic) [Example 2.8]
2 | 105 |  |  | CO[C@@H]1COC[C@@H]1Oc1cc(F)ccc1Nc1ncnc2cc(N=S3(=O)CCCC3)cc(C)c12 (racemic) [Example 2.10]
2 |  | 46 |  | Cc1cc(N=S2(=O)CCCC2)cc2ncnc(Nc3cccnc3O[C@H]3COC[C@H]3OCCF)c12 (racemic) [Example 2.25]
2 | 95 |  |  | CO[C@@H]1CCC(Oc2cc(F)ccc2Nc2ncnc3cc(N=S4(=O)CCC4)cc(C)c23)CO1 (mixture of isomers) [Example 2.56]
2 | 96 |  |  | COc1cc(N=S(C)(C)=O)cc2ncnc(Nc3ccc(F)cc3O[C@H]3COC[C@H]3OC)c12 (racemic) [Example 9.1]
2 | 94 |  |  | COc1cc(N=S2(=O)CCCC2)cc2ncnc(Nc3ccc(F)cc3O[C@H]3COC[C@H]3OC)c12 (racemic) [Example 9.2]
2 | 93 |  |  | Cc1cc(N=S(C)(C)=O)cc2ncnc(Nc3ccc(F)cc3O[C@H]3COC[C@H]3OCCF)c12 (racemic) [Example 10.2]
1 |  | 55 |  | Cc1cc(N=S2(=O)CCCC2)cc2ncnc(Nc3ccc(F)cc3O[C@H]3COC[C@H]3OCCF)c12 (racemic) [Example 10.1]
